Results from PMC8097893, “Investigating the effects of two novel 4-MMPB analogs as potent lipoxygenase inhibitors for prostate cancer treatment” (Journal of Biological Research, 2021).
Like-named read-outs stand apart in the source and are kept apart here.

Key:
HDF cells = assay: MTT cytotoxicity assay on HDF normal cells; format: cell-based, human
Description: (§1) Two mg of each compound was dissolved in 100 μl hydrochloric acid (HCl 0.3 N) to make a primary stock solution. Different concentrations (1.56–50 μg ml^−1) were then prepared by serial dilution from the primary stock solution and further diluted in the culture medium.
(§2) PC-3 cells were obtained from Pasteur Institute (Tehran, Iran) and routinely cultured in RPMI 1640 supplemented with 10% FBS. In order to investigate the toxicity of the compounds on normal cells, in vitro experiments were also performed on HDF cells. These cells were kindly provided by Academic Center for Education, Culture and Research (ACECR, Mashhad, Iran) and grown in DMEM supplemented with 10% FBS. Both cell lines were kept at 37 °C containing 5% CO2 in a humidified incubator.
(§3) The MTT reduction assay is a standard quantitative method to evaluate cytotoxicity. This assay measures cellular dehydrogenases, and is considered as an easy, safe and highly reproducible method. Viable cells reduce yellow tetrazolium salt to purple formazan crystals and thus the color change serves as a marker reflecting cell viability.
(§4) PC-3 and HDF cells were seeded in 96-well plates (NEST, China) at a density of 6000 and 8000 cells per well, respectively and incubated at 37 °C with 5% CO2. […] After 24, 48 and 72 h of treatments, 20 μl MTT solution (5 mg ml^−1 in PBS; phosphate buffered saline) was added to each well, and cells were incubated in the dark for 3–4 h. The media were then removed and purple crystals were dissolved in 160 μl DMSO. The absorbance in each well was measured at 540 nm as reference wavelength in an enzyme-linked immunosorbent assay (ELISA) reader (Awareness Technology, USA) and relative optical density (OD) values were recorded. The percentage of viable cells was calculated using the following equation [49]: Cell viability%=100×ODmeanof treated cells-ODmeanblank/ODmeanof negative control cellsHCl0.3 N-ODmeanblank.

[1] = In vivo side effects evaluation (body weight, serum biochemistry, H&E histology); design: species or system C57BL/6 mice; settings: for serum AST and ALT levels: 50 mg kg^-1, compared with immunosuppressed control group; for histological analysis of major organs (liver, kidney, spleen): H&E, day 15 after treatments
PC-3 cells [2] = assay: MTT cytotoxicity assay on PC-3 cells; format: cell-based, human; settings: PC-3, MTT
Description: as §1, §2, §3, §4

PC-3 cells [3] = assay: Flow cytometric analysis of cell death (Annexin V-FITC/PI) in PC-3 cells; format: cell-based, human; settings: for change of Q2 (Annexin V positive/PI positive) population after co-treatment with deferoxamine: PC-3, compared with compound only; for percentage of early and late apoptotic/ferroptotic cells (Q3+Q2): PC-3, treated with IC50 value of the compound, 24 h, control 0.133%
Description: To determine the mechanism of cell death induced by 4-MMPB analogs, flow cytometry was employed using the Annexin V-FITC kit with PI (BioLegend, San Diego, USA) according to the manufacturer’s instructions. We performed co-treatment experiments with the compounds and a ferroptosis inhibitor (IC50 values of 4-PMPB + , 4-EMPB + , and 4-MMPB + deferoxamine (80 µM)) on PC-3 cells, to distinguish between ferroptosis and apoptosis mechanisms. […] Then the cells were collected by trypsinization (0.25% trypsin-1 mM EDTA), washed twice with PBS, followed by centrifugation, and resuspended in a binding buffer. Samples were stained with Annexin V-FITC/ PI followed by 15 min incubation at room temperature. Finally, cells were subjected to flow cytometry (BD Accuri C6, San Jose, USA) and the data were analyzed by FlowJo 7.6.1 software (Ashland, USA). Moreover, PC-3 cells treated with 0.3 N HCl were used as a control to eliminate the effects of solvent.

PC-3 tumors = assay: Anti-tumor effect in PC-3 xenograft tumor model in immunocompromised C57BL/6 mice
soybean LOX-1 [4] = molecular target: T1, soybean LOX-1 (Glycine max, UniProt P08170); assay: Soybean LOX-1 enzyme inhibitory assessment (DMAB-MBTH colour assay, linoleic acid substrate); format: biochemical; settings: from sigmoidal dose-response curves, n = 3; read-out: IC50, soybean LOX-1 inhibition
T1 construct: purchased Sigma-Aldrich
T1 sequence (P08170 1-839): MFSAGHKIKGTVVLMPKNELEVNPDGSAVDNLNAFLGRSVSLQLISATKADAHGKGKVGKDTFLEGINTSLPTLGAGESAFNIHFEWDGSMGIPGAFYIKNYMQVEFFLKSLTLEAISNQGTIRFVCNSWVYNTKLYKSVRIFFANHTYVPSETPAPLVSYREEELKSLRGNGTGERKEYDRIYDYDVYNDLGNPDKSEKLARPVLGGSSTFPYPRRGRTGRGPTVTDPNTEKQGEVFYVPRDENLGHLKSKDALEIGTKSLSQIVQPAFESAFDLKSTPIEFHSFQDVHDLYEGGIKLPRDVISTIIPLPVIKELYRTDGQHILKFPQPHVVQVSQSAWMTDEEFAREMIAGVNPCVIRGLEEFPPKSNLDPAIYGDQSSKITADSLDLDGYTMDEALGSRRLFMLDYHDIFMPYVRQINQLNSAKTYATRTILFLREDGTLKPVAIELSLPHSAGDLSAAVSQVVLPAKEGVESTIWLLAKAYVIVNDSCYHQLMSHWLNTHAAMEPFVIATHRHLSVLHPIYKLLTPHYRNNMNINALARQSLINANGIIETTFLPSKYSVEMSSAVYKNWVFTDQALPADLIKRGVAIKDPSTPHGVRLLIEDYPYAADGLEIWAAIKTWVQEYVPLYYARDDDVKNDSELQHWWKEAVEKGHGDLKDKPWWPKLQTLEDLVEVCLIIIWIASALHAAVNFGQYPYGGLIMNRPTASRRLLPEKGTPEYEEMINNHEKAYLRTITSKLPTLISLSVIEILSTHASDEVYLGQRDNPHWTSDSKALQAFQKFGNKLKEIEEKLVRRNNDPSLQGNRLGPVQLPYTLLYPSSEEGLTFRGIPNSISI
Description: Linoleic acid and two assay solutions (A and B) were prepared in advance. Solution A was 50 mM 3-(dimethylamino)benzoic acid (DMAB) in l00 mM phosphate buffer (pH 7.0). Solution B was a mixture of l0 mM 3-methyl-2-benzothiazolinonehydrazone hydrochloride (MBTH; 3 ml), and hemoglobin (5 mg ml^−1, 3 ml) in 50 mM phosphate buffer at pH 5.0 (25 ml). A linoleic acid solution was prepared by mixing 5.6 mg linoleic acid with 0.5 ml methanol and then diluted with 100 mM KOH to a final volume of 5 ml (4 mM). In the assay, a solution of inhibitors in dimethyl sulfoxide (DMSO) (12.5 μl), soybean LOX-1 (4000 units ml^−1 in 50 mM phosphate buffer pH 7.0; 25 μl), and phosphate buffer, pH 7.0 (50 mM; 435 μl) were mixed in 48-well plates, and pre incubation was carried out for 10 min at 30 °C. A control test was performed with the same volume of DMSO. After the pre incubation, linoleic acid solution (25 μl) was added to start the peroxidation reaction at 30 °C, and 10 min later, solution A (135 μl) and then solution B (65 μl) were added to start the color formation. After 3 min, 100 μl of a 2% sodium dodecyl sulphate (SDS) solution was added to terminate the reaction. The absorbance at 598 nm was compared with the control. These experiments were performed in triplicate and the data were analyzed using GraphPad Prism 6.0 (San Diego, USA).
Lipoxygenase inhibitory activity of 4-MMPB and its analogs was assessed on soybean LOX-1 and the inhibitory potencies (IC50 values) of the mentioned compounds were calculated from their sigmoidal dose–response curves (Fig. 2).

soybean LOX-1 [5] = molecular target: T1, soybean LOX-1; design: method as in doi:10.1007/s00044-013-0506-7; settings: read-out: IC50 against soybean LOX-1; cited from earlier work
15-LOX-1 = settings: read-out: IC50 against 15-LOX-1; cited from earlier work
15-lipoxygenase = molecular target: 15-lipoxygenase; design: method as in PMID 17210254; settings: read-out: IC50, 15-lipoxygenase inhibition; cited from earlier work
[6] = 10 and 50 mg kg^-1, 15 days follow up
[7] = high dose 50 mg kg^-1, 15 days, vs PBS and 0.3 N HCl controls
[8] = 24 h, read-out: IC50 (µM) ± SD (HDF) 24 h
[9] = 48 h, read-out: IC50 (µM) ± SD (HDF) 48 h
[10] = 72 h, read-out: IC50 (µM) ± SD (HDF) 72 h
[11] = 24 h, read-out: IC50 (µM) ± SD (PC-3) 24 h
[12] = 48 h, read-out: IC50 (µM) ± SD (PC-3) 48 h
[13] = 72 h, read-out: IC50 (µM) ± SD (PC-3) 72 h

SMILES | IC50 (soybean LOX-1 [4]) [µM] | cytotoxicity on normal (HDF) cells, in words (HDF cells) | serum AST and ALT levels [1] | body weight [1, 6] | histological analysis of major organs (liver, kidney, spleen) [1] | change of Q2 (Annexin V positive/PI positive) population after co-treatment with deferoxamine (PC-3 cells [3]) | percentage of early and late apoptotic/ferroptotic cells (Q3+Q2) (PC-3 cells [3]) [%] | tumor growth (PC-3 tumors; [7]) | IC50 (HDF cells; [8]) [µM] | IC50 (HDF cells; [9]) [µM] | IC50 (HDF cells; [10]) [µM] | IC50 (PC-3 cells [2]; [11]) [µM] | IC50 (PC-3 cells [2]; [12]) [µM] | IC50 (PC-3 cells [2]; [13]) [µM] | other results
CCc1nc(N2CCN(C)CC2)nc2c1Nc1ccccc1S2 [4-EMPB, 4-Ethyl-2-(4-methylpiperazinyl)pyrimido[4,5-b]benzothiazine] | 14.3 | weak cytotoxicity | significantly elevated | no significant changes | no obvious tissue damages | markedly decreased | 60.9 | effectively inhibited |  |  |  |  |  |  | IC50 (HDF cells; Homo sapiens, 24 h, read-out: IC50 (µM) ± SD (HDF) 24 h): 545.5 ± 1.99 µM; IC50 (HDF cells; Homo sapiens, 48 h, read-out: IC50 (µM) ± SD (HDF) 48 h): 361.7 ± 2.29 µM; IC50 (HDF cells; Homo sapiens, 72 h, read-out: IC50 (µM) ± SD (HDF) 72 h): 258.9 ± 1.86 µM; IC50 (PC-3 cells [2]; Homo sapiens, 24 h, read-out: IC50 (µM) ± SD (PC-3) 24 h): 107 ± 6.17 µM; IC50 (PC-3 cells [2]; Homo sapiens, 48 h, read-out: IC50 (µM) ± SD (PC-3) 48 h): 75 ± 3.39 µM; IC50 (PC-3 cells [2]; Homo sapiens, 72 h, read-out: IC50 (µM) ± SD (PC-3) 72 h): 49 ± 6.76 µM
CC(C)=CCCC(C)=CCCC(C)=CCOc1cccc2oc(=O)ccc12 [5-farnesyloxycoumarin] |  |  |  |  |  |  |  |  |  |  |  |  |  |  | IC50 (15-LOX-1): 8.32 µM
N.N.[Cl][Pt][Cl] [Cisplatin, cisplatin, reference compound] |  |  |  |  | mild and local accumulation of inflammatory cells |  | 67.8 |  | 153 ± 2.89 | 119 ± 2.56 | 71.1 ± 3.34 | 62.3 ± 1.74 | 51.5 ± 1.43 | 41.6 ± 1.11 | serum liver enzymes ([1]; cisplatin 2 mg kg^-1, compared to control group, p < 0.0001): significantly increased; body weight ([1]; cisplatin 2 mg kg^-1, day 15, p < 0.01 vs other experimental groups): lowest body weights; tumor growth (PC-3 tumors; cisplatin 2 mg kg^-1, 15 days, vs controls and lower-dose groups): significant decrease

Continued, in another order:

IC50 (soybean LOX-1 [4]) [µM] | SMILES | cytotoxicity on normal (HDF) cells, in words (HDF cells) | serum AST and ALT levels [1] | body weight [1, 6] | histological analysis of major organs (liver, kidney, spleen) [1] | change of Q2 (Annexin V positive/PI positive) population after co-treatment with deferoxamine (PC-3 cells [3]) | percentage of early and late apoptotic/ferroptotic cells (Q3+Q2) (PC-3 cells [3]) [%] | tumor growth (PC-3 tumors; [7]) | IC50 (HDF cells; [8]) [µM] | IC50 (HDF cells; [9]) [µM] | IC50 (HDF cells; [10]) [µM] | IC50 (PC-3 cells [2]; [11]) [µM] | IC50 (PC-3 cells [2]; [12]) [µM] | IC50 (PC-3 cells [2]; [13]) [µM] | other results
8.6 | CCCc1nc(N2CCN(C)CC2)nc2c1Sc1ccccc1N2 [4-PMPB, 4-propyl-2-(4-methylpiperazinyl)pyrimido[4,5-b]benzothiazine] | no obvious cytotoxicity | significantly elevated | no significant changes | no obvious tissue damages | markedly decreased | 52.38 | effectively inhibited | 1641.1 ± 0.075 | 1443.7 ± 0.055 | 1028.9 ± 0.139 | 122 ± 2.62 | 88.5 ± 2.31 | 57.6 ± 2.12 | IC50 (soybean LOX-1 [5]): 9 µM
17.1 | Cc1nc(N2CCN(C)CC2)nc2c1Sc1ccccc1N2 [4-MMPB, 4-Methyl-2-(4-methylpiperazinyl)pyrimido[4,5-b]benzothiazine] | weak cytotoxicity | significantly elevated | no significant changes | no obvious tissue damages | markedly decreased | 41.5 | effectively inhibited | 331 ± 3.33 | 284 ± 2.98 | 186 ± 2.81 | 101 ± 2.41 | 55.6 ± 1.98 | 40.8 ± 1.79 | IC50 (15-lipoxygenase): 18 µM
